Counter-ions that a name gives are not always drawn.
Target: T1, Rec1-resilin (Drosophila melanogaster, UniProt Q9V7U0)
T1 sequence (Q9V7U0 18-322 limits assumed): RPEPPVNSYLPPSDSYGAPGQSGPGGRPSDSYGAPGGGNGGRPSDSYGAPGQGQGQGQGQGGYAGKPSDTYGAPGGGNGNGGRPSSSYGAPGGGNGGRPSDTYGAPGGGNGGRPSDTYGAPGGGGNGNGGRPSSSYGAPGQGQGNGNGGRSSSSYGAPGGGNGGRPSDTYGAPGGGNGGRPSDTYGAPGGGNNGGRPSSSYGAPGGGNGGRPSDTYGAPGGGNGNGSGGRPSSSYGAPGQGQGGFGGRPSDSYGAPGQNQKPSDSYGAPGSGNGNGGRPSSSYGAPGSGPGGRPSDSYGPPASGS
Experiment: ANS fluorescence titration, Scatchard plot
Assay type: binding

Kd: 58.8 µM
SMILES: O=S(=O)(O)c1cccc2cccc(Nc3ccccc3)c12 [ANS, 8-anilino-1-naphthalenesulfonic acid (ammonium salt)]

From publication PMC9770960 (Science Advances, 2022)
